Assay results published in the METLIN SMRT retention time set (Domingo-Almenara et al. 2019).

Experiment: gradient 5% acetonitrile 3 min, to 50% in 2 min, to 85% in 15 min, held 3 min, 100 µL/min
Conditions: column: Zorbax Extend-C18 2.1 x 50 mm; eluents: water / acetonitrile, 0.1% formic acid
In short: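 Over 3 months, pure standards in mixtures of ~100 molecules were run by HPLC coupled to a quadrupole time-of-flight mass spectrometer in positive and negative ionization mode. The column was a Zorbax Extend-C18 (2.1 × 50 mm, 1.8 μm) at 100 μL/min, eluted with water and acetonitrile each holding 0.1% formic acid, with 40 μL dead and 900 μL dwell volumes. Retention time was determined from adduct peaks chosen by software and checked manually.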

Row | RP-LC retention time [s] | Structure (SMILES)
1 | 725 | Cc1oc(-c2[nH]ncc2C(=O)N(C)C)cc1S(=O)(=O)NCc1ccc(Cl)cc1
2 | 922 | O=C(NCCc1c[nH]c2ccc(Cl)cc12)c1ccc(-n2nnc3cccnc32)cc1
3 | 1130 | Cc1cccc(NC(=O)CSc2cc(N3CCN(c4ccccc4F)CC3)ncn2)c1C
4 | 856 | O=C(CCc1ccc2[nH]ccc2c1)N1CCN(c2ccccc2)CC1
5 | 875 | Cn1ncc2c3ccccc3n(CC(=O)N3CCN(c4ccc(F)cc4)CC3)c2c1=O
6 | 702 | O=C(c1cn2ccnc(-c3ccccc3)c2n1)N1CCN(c2ncccn2)CC1
7 | 568 | CCC1(O)CCOC2(CCN(Cc3cc(OC)cc(OC)c3)CC2)C1 (stereo not drawn)
8 | 974 | O=C(NCc1cccc(Cl)c1)c1cc(C2CC2)n2nccc2n1
9 | 790 | O=C(CN1CCN(Cc2ccc(F)cc2)C1=O)NCc1cccc(F)c1
10 | 608 | CCN(CC)CCCNC(=O)c1ccc2c(c1)N(C)C(=O)C1CCCCN21 (stereo not drawn)
11 | 705 | CCC1CCCCN1C(=O)c1cnc2nc(C)ccc2c1Nc1cc(F)ccc1C (stereo not drawn)
12 | 987 | CCOC(=O)c1c(C)c(C(=O)CN(CC2CCCO2)C(=O)c2ccc(Cl)cc2)c(C)n1C (stereo not drawn)
13 | 978 | COc1ccc(NC(=O)N2c3ccccc3CC2c2nc(C3CC3)no2)c(C)c1 (stereo not drawn)
14 | 595 | Cc1cc(C(=O)Nc2ccc3nc(N4CCN(C)CC4)cc(C)c3c2)ccc1[N+](=O)[O-]
15 | 688 | O=C(Nc1ccc2c(c1)OCO2)C1COCC(=O)N1Cc1ccccc1 (stereo not drawn)
16 | 651 | COc1ccccc1C(CNC(=O)c1cc(=O)c2cc(C)c(C)cc2o1)N(C)C (stereo not drawn)
17 | 978 | COc1ccc(-c2ncc3c(n2)CCN(C(=O)Nc2ccc(Cl)cc2)C3)cc1
18 | 974 | CCOc1ccc(NC(=O)Cc2c(C)nn(-c3nc(C)cs3)c2C)cc1
19 | 636 | O=C(O)c1ccc(OCC(=O)C2CC2)cc1
20 | 815 | COc1ccccc1C1(CNC(=O)Cc2cn(C)c3ccccc23)CCOCC1
21 | 1160 | CC(C)c1csc(-c2csc(S(=O)(=O)NCc3ccc(Cl)cc3)c2)n1
22 | 575 | O=S(=O)(NCC1CCN(Cc2ccco2)CC1)c1ccc(F)c(Cl)c1

Row | RP-LC retention time [s] | Structure (SMILES)
23 | 702 | CCNC(=O)c1cn(-c2ccc(SCC(=O)Nc3ccc(Cl)cc3F)nn2)cn1
24 | 569 | CCOC(=O)c1c(C)[nH]c(C(=O)N2CCC(CC(=O)NCCN(C)C)CC2)c1C
25 | 961 | COc1ccc2c(c1)CCc1sc(NC(=O)c3ccco3)nc1-2
26 | 805 | Cc1cc(C)c(NC(=O)COc2cccc3c(=O)n(C)ccc23)c(C)c1
27 | 917 | Cc1cc(C)n(Cc2nc(-c3ccc(NC(=O)Cc4ccc(F)cc4)cc3)oc2C)n1
28 | 564 | O=C(c1ccc2c(=O)n3c(nc2c1)CCCC3)N1CCN(c2ccccn2)CC1
29 | 595 | COCCN1C(=O)[C@H]2CN(Cc3cc(OC)ccc3OC)C[C@H]2C1=O
30 | 1090 | O=C(Nc1ccc(OC(F)(F)F)cc1)C1CCCN(c2ccc(=O)n(-c3cccc(Cl)c3)n2)C1 (stereo not drawn)
31 | 662 | COc1ccc(-c2nc3ccccn3c2NC(=O)c2ccc([N+](=O)[O-])cc2)cc1
32 | 831 | c1ccc(-c2cc(N3CCN(c4ccccn4)CC3)nn2-c2ccccc2)cc1
33 | 1110 | O=c1ccc(-c2nc(-c3ccc(F)cc3)no2)nn1Cc1cc(F)cc(F)c1
34 | 1090 | COC(=O)c1cc(C2CC2)nc2c1c(=O)n(Cc1ccc(F)cc1)c(=O)n2C
35 | 906 | Cc1cc(S(=O)(=O)NCC(c2cccs2)S(=O)(=O)c2ccccc2)ccc1F (stereo not drawn)
36 | 1220 | COc1ccc(-c2csc(NC(=O)COc3ccccc3Cl)n2)cc1Br
37 | 952 | Cc1ccc(Cn2nc3n(Cc4ccc(F)cc4)c(=O)c4nn(C)cc4n3c2=O)cc1
38 | 679 | Cc1cc(=O)n(CC(=O)N2CCc3ccccc32)c(N2CCCCC2)n1
39 | 723 | O=C(C1CCN(c2cnc3nccnc3c2)CC1)N1CCN(c2ccc(F)cc2)CC1
40 | 954 | O=C(Nc1c(F)cccc1F)N1CCc2nc(-c3ccc(Cl)cc3)ncc2C1
41 | 891 | CCn1ccc(C(=O)Nc2cccc(OCc3nnc(-c4ccccc4)o3)c2)n1
42 | 833 | CCOC(=O)c1c(NCCc2c[nH]c3ccccc23)c2ccc(Cl)cc2[nH]c1=O
43 | 680 | O=C(NCc1ccc(F)cc1)c1cccc(-c2ccc(N3CCCC3)nc2)c1
44 | 721 | O=C(NC1CC1)c1ccc2c(c1)CCN2C(=O)C1CCC1

Row | RP-LC retention time [s] | Structure (SMILES)
45 | 981 | O=C(Nc1nc(-c2ccc(Cl)cc2Cl)cs1)c1ccno1
46 | 874 | Cc1ccc(-c2noc(-c3ccc(N4CCN(Cc5ccc6c(c5)OCO6)CC4)nc3)n2)cc1
47 | 797 | O=C(CC1CCCC1)N1CCN(c2nnc3ccc(C(F)(F)F)cn23)CC1
48 | 927 | O=C(Nc1ccccc1Br)c1cnc(-c2ccccc2)nc1-c1ccncc1
49 | 868 | O=C(NC1CC1)c1ccc(OCC2CCN(C(=O)Cc3ccccc3Cl)CC2)cc1
50 | 759 | Cc1nc(CCNC(=O)C2CCN(S(=O)(=O)c3ccc(Br)s3)CC2)cs1
51 | 652 | CCN(Cc1ccc(C)cc1)Cc1cc(=O)n2cc(Cl)ccc2n1
52 | 1170 | O=S(=O)(c1ccc(-c2noc(-c3cccc(Cl)c3)n2)cc1)N1CCOCC1
53 | 559 | Cc1oc(-c2[nH]ncc2C(=O)N(C)C)cc1S(=O)(=O)NCc1cccnc1
54 | 1100 | Cc1ccc(N(C)C(=O)C2CCN(S(=O)(=O)c3ccc(-c4noc(C5CC5)n4)cc3)CC2)cc1
55 | 917 | CSc1cccc(NC(=O)N2CCC(C)(C(=O)NCc3ccc(C)cc3)CC2)c1
56 | 684 | O=C(Nc1ccc2nc3n(c(=O)c2c1)CCCCC3)C(=O)N1CCCC1
57 | 548 | CC(C)CN1C(=O)c2cccn2CC1C(=O)NCCCN1CCN(C)CC1 (stereo not drawn)
58 | 950 | C[C@@H]1c2ccccc2CCN1C(=O)Cc1ccccc1F
59 | 613 | COCC(=O)Nc1ccc2c(c1)CCC(=O)N2C
60 | 726 | Cc1ccc(-n2nc(C(=O)N3CCN(c4ncccn4)CC3)c3ncn(C)c(=O)c32)cc1
61 | 918 | COc1ccc(-c2nnc(-c3ccc(C)c(S(=O)(=O)Nc4ccc(Cl)cn4)c3)o2)cc1OC
62 | 573 | COc1cccc(-c2nnc(SCC(=O)NCc3cccnc3)n2-c2ccccc2)c1
63 | 626 | CCN(CCNC(=O)CCc1cc2cc(OC)ccc2[nH]c1=O)Cc1ccccc1
64 | 626 | Cc1cnc(CCC2CCCN2C(=O)c2ccc(Cn3cncn3)o2)n1C(C)C (stereo not drawn)
65 | 671 | Cn1cc(-c2ccncc2)cc1C(=O)N1CCN(c2ccccc2Cl)CC1
66 | 675 | Cn1cnc(S(=O)(=O)N2CCC(C(=O)Nc3ccccc3)CC2)c1

Row | RP-LC retention time [s] | Structure (SMILES)
67 | 722 | Cc1ncoc1C(=O)N1CC(n2cc(COc3ccc(F)cc3)nn2)C1
68 | 648 | O=C(Cc1ccsc1)Nc1ccc(-c2nnc3n2CCCC3)cc1
69 | 758 | CC(C)CC(=O)N1CCC(COc2ccc(C(=O)NC3CC3)cc2)CC1
70 | 687 | COc1ccc(SCC(=O)Nc2c3c(nn2C)CCC3)cc1
71 | 736 | CCC(C)C(NC(=O)Cc1ccccc1F)C(=O)Nc1nc2ccccc2[nH]1 (stereo not drawn)
72 | 757 | Cc1nnc(N2CCCC(C(=O)NCc3cccc(F)c3)C2)c2nn(-c3ccc(Cl)cc3)c(C)c12 (stereo not drawn)
73 | 762 | CCCn1ccc2sc(C)c(C(=O)N3CCN(c4ccc(OC)cc4)CC3)c2c1=O
74 | 618 | COc1cc(OC)c(NC(=O)N2CCN(CCn3c(C(C)C)nc4cccnc43)CC2)cc1Cl
75 | 1370 | CC(C)Oc1ccc(-c2noc(CN3C(=O)COc4cc(C(C)(C)C)ccc43)n2)cc1
76 | 1140 | Cc1cc(NC(=O)c2nc(C(C)C)oc2C)ccc1F
77 | 729 | COc1ccc(S(=O)(=O)N2C[C@H]3CN(C(=O)NCC(C)C)C[C@@H](C2)O3)cc1
78 | 857 | CCNC(=O)N(CC(=O)N1CCc2sccc2C1COc1ccccc1)CC1CC1 (stereo not drawn)
79 | 763 | O=C(NC1CCCC1)c1nc(-c2ccnc(N3CCCCC3)c2)no1
80 | 766 | Cc1ccc(NC(=O)N(C)CC2CCOC2)c(Cl)c1 (stereo not drawn)
81 | 1130 | Cc1oc2ccn(Cc3ccc(F)cc3)c(=O)c2c1C(=O)NCc1cc(F)cc(F)c1
82 | 731 | Cc1cccc(CNC(=O)c2cc3n(n2)CC(C)(C(=O)NC2CCCC2)N(C)C3=O)c1 (stereo not drawn)
83 | 599 | NC(=O)C1CCCN(C(=O)c2ccc(F)cc2F)C1 (stereo not drawn)
84 | 972 | CCCc1ccc(S(=O)(=O)NC2CCN(c3ccc(=O)n(CC4CC4)n3)CC2)cc1
85 | 614 | CCc1nc2ccc(CCC(=O)NCCCc3ccccc3)cc2[nH]1
86 | 1030 | Cc1ccc2c(c1)N(S(C)(=O)=O)CCC(C(=O)Nc1ccc(Br)cc1F)O2 (stereo not drawn)
87 | 848 | O=C(NCC1CC1)c1cn(-c2ncccc2-c2nc(-c3ccccc3)no2)cn1

Row | Structure (SMILES) | RP-LC retention time [s]
88 | Cc1ncc([N+](=O)[O-])n1CCOC(N)=O | 624
